Where a name gives a salt, the structure may show the parent alone.
Experiments:
tubulin = target: T1, tubulin (Sus scrofa, UniProt P02550+P02554); experiment: Evaluation of the inhibition of tubulin polymerization (turbidimetry); format: biochemical, pig; details: tubulin 10 μm (1 mg/ml), 37° C., turbidity at 350 nm; concentration that inhibits the rate of polymerization by 50%; read-out: Inhibition of tubulin polymerization IC 50 (μm)
T1 construct: Tubulin is purified from pig brain according to published methods; from tissue; host or cells: pig brain
T1 sequence (P02550 whole entry): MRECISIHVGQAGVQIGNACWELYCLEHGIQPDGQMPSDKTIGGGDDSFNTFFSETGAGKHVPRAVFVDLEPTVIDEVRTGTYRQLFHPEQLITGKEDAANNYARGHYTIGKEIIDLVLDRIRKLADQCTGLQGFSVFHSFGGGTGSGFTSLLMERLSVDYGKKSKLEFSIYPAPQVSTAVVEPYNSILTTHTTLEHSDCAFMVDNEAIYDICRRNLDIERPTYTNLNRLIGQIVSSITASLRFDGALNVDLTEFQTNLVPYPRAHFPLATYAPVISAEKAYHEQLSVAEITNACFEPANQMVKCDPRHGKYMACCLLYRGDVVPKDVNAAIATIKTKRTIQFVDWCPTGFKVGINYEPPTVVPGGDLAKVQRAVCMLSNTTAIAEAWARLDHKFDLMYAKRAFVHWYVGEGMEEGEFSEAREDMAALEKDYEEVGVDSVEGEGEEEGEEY
T1 sequence (P02554 whole entry): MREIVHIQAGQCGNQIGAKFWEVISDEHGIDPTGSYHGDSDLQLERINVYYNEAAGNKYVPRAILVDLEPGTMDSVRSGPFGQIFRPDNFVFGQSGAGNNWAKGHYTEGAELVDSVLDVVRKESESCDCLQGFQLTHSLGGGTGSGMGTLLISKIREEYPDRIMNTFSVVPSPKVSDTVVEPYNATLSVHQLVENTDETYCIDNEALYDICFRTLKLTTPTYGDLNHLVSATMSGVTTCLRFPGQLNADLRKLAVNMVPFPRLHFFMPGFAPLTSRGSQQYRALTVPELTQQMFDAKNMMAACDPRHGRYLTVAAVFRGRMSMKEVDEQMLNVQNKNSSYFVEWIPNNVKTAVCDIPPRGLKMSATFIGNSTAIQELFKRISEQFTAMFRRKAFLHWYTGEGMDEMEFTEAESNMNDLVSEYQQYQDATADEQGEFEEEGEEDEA
In short: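 Pig brain tubulin (>95% pure), 10 μm in MES pH 6.8/30% glycerol buffer plus 1 mM GTP and 6 mM MgCl2, with compound at 0.5–10 μm added before polymerization. Polymerization triggered by shift from 6° C to 37° C, followed by turbidity at 350 nm; IC50 is 50% inhibition of polymerization rate.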

HCT116 cells = experiment: Inhibition of proliferation of the human colon tumor line HCT116 ([14C]-thymidine incorporation); format: cell-based; details: Homo sapiens, HCT-116, 48 h, 48 hours at 37° C., read-out: Inhibition of HCT116 proliferation IC 50 (μm)
In short: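 HCT116 cells (5000/well) in DMEM with 10% fetal calf serum incubated 48 h at 37° C with [14C]-thymidine (0.1 μCi/well) and compound up to 10 μm (DMSO ≤0.5%). Incorporated radioactivity counted; IC50 is concentration cutting radioactivity by 50% versus untreated control.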

SMILES	melting point	IC50 (tubulin)	IC50 (HCT116 cells)
O=C(c1cccn1-c1ccccc1)N1CCN(c2cccnc2)CC1 (as salt: hydrochloride) [Example E46, (1-Phenyl-1H-pyrrol-2-yl)[4-(pyrid-3-yl)piperazin-1-yl]methanone hydrochloride]	180 °C		
Cc1cc(C(=O)N2CC=C(c3ccccc3)CC2)n(-c2ccccc2)n1 [Example 4, (4-Phenyl-1,2,3,6-tetrahydropyridin-1-yl)(5-methyl-2-phenyl-2H-pyrazol-3-yl)-methanone]	68 °C	3000 nM	58.8 nM
O=C(c1cccn1-c1ccccc1)N1CCN(c2cccc(Cl)c2)CC1 [Example 6, [4-(3-Chlorophenyl)piperazin-1-yl](1-phenyl-1H-pyrrol-2-yl)methanone]	105 °C	1200 nM	38.2 nM
Cc1cc(C(=O)N2CCN(c3cccc(Cl)c3)CC2)n(-c2cccnc2)n1 [Example E52, [4-(3-Chlorophenyl)piperazin-1-yl][5-methyl-2-(pyrid-3-yl)-2H-pyrazol-3-yl]methanone]	124 °C	1410 nM	10.2 nM
COc1cc(OC)cc(N2CCN(C(=O)c3cc(C)nn3-c3cccnc3)CC2)c1 [Example E53, [4-(3,5-Dimethoxyphenyl)piperazin-1-yl][5-methyl-2-(pyrid-3-yl)-2H-pyrazol-3-yl]methanone]	60 °C	620 nM	11.1 nM
Cc1cc(C(=O)N2CCN(c3cccnc3)CC2)n(-c2cccc(F)c2)n1 [Example E58, [2-(3-Fluorophenyl)-5-methyl-2H-pyrazol-3-yl](4-pyrid-3-ylpiperazin-1-yl)methanone]	132 °C	1000 nM	41.1 nM
COc1cc(OC)cc(N2CCN(C(=O)c3cc(C(C)C)nn3-c3ccccc3)CC2)c1 [Example E71, [4-(3,5-Dimethoxyphenyl)piperazin-1-yl](5-isopropyl-2-phenyl-2H-pyrazol-3-yl)methanone]	116 °C	3740 nM	200 nM
COc1cc(OC)cc(N2CCN(C(=O)c3cc(N4CCC(O)C4)nn3-c3ccccc3)CC2)c1 (centres unmarked) [Example E106, [4-(3,5-Dimethoxyphenyl)piperazin-1-yl][5-(3-hydroxypyrrolidin-1-yl)-2-phenyl-2H-pyrazol-3-yl]methanone]		10000 nM	142 nM
Cc1cc(C(=O)N2CCN(c3cc(F)c(F)c(F)c3)CC2)n(-c2ccccc2)n1 [Example E111, (5-Methyl-2-phenyl-2H-pyrazol-3-yl)[4-(3,4,5-trifluorophenyl)piperazin-1-yl]methanone]	204 °C	2330 nM	
COc1cc(OC)cc(N2CCN(C(=O)c3cc(C(F)(F)F)nn3-c3ccccc3)CC2)c1 [Example E117, [4-(3,5-Dimethoxyphenyl)piperazin-1-yl](2-phenyl-5-trifluoromethyl-2H-pyrazol-3-yl)methanone]	84 °C	7900 nM	28.4 nM
O=C(c1cc(C(F)(F)F)nn1-c1ccccc1)N1CCN(c2cccc(Cl)c2)CC1 [Example E118, [4-(3-Chlorophenyl)piperazin-1-yl](2-phenyl-5-trifluoromethyl-2H-pyrazol-3-yl)-methanone]	160 °C	2300 nM	403 nM
NC(=O)c1cccc(N2CCN(C(=O)c3cc(C(F)(F)F)nn3-c3ccccc3)CC2)c1 [Example E119, 3-[4-(2-Phenyl-5-trifluoromethyl-2H-pyrazole-3-carbonyl)piperazin-1-yl]benzamide]	160 °C	1200 nM	10.3 nM
NC(=O)c1cccc(N2CCN(C(=O)c3cc(CO)nn3-c3ccccc3)CC2)c1 [Example E134, 3-[4-(5-Hydroxymethyl-2-phenyl-2H-pyrazole-3-carbonyl)piperazin-1-yl]benzamide]	216 °C	3200 nM	

Other lines, results leading:

melting point	IC50 (tubulin)	IC50 (HCT116 cells)	SMILES
138 °C	900 nM	1.2 nM	Cc1cc(C(=O)N2CCN(c3cccc(Br)c3)CC2)n(-c2ccccc2)n1 [Example E6, [4-(3-Bromophenyl)piperazin-1-yl](5-methyl-2-phenyl-2H-pyrazol-3-yl)methanone]
158 °C	3000 nM	53.1 nM	Cc1cc(C(=O)N2CCN(c3cccc(N)c3)CC2)n(-c2ccccc2)n1 [Example E9, [4-(3-Aminophenyl)piperazin-1-yl](5-methyl-2-phenyl-2H-pyrazol-3-yl)methanone]
136 °C	900 nM	4.9 nM	Cc1cc(C(=O)N2CCN(c3cccc(C#N)c3)CC2)n(-c2ccccc2)n1 [Example E10, [4-(3-Cyanophenyl)piperazin-1-yl](5-methyl-2-phenyl-2H-pyrazol-3-yl)-methanone]
107 °C	1000 nM	12 nM	Cc1cc(C(=O)N2CCN(c3cccc(OC(F)(F)F)c3)CC2)n(-c2ccccc2)n1 [Example E11, [4-(3-Trifluoromethyloxyphenyl)piperazin-1-yl](5-methyl-2-phenyl-2H-pyrazol-3-yl)methanone]
128 °C	2300 nM	3.1 nM	Cc1cc(C(=O)N2CCN(c3ccc4c(c3)OCO4)CC2)n(-c2ccccc2)n1 [Example E12, [4-(1,3-Benzodioxol-5-yl)piperazin-1-yl](5-methyl-2-phenyl-2H-pyrazol-3-yl)-methanone]
128 °C	14000 nM	239 nM	Cc1cc(C(=O)N2CCN(c3nccc4ccccc34)CC2)n(-c2ccccc2)n1.Cl [Example E15, [4-(Isoquinolin-1-yl)piperazin-1-yl](5-methyl-2-phenyl-2H-pyrazol-3-yl)-methanone hydrochloride]
129 °C	6000 nM	40 nM	Cc1cc(C(=O)N2CCN(c3cnccn3)CC2)n(-c2ccccc2)n1 [Example E19, (5-Methyl-2-phenyl-2H-pyrazol-3-yl)(2,3,5,6-tetrahydro-[1,2′]bipyrazinyl-4-yl)-methanone]
186 °C	320 nM	10 nM	Cc1cc(C(=O)N2CCN(c3cccc(C(N)=O)c3)CC2)n(-c2ccccc2)n1 [Example E23, 3-[4-(5-Methyl-2-phenyl-2H-pyrazole-3-carbonyl)piperazin-1-yl]benzamide]
144 °C	22500 nM		Cc1cc(C(=O)N2CCN(c3cccc(C(=O)OC(C)(C)C)c3)CC2)n(-c2ccccc2)n1 [Example E27, tert-butyl 3-[4-(5-methyl-2-phenyl-2H-pyrazole-3-carbonyl)piperazin-1-yl]benzoate]
166 °C	4500 nM	89.4 nM	Cc1cc(C(=O)N2CCN(c3cncc4ccccc34)CC2)n(-c2ccccc2)n1 [Example E41]
127 °C	13500 nM		Cc1cc(C(=O)N2CCN(c3ccccc3[N+](=O)[O-])CC2)n(-c2ccccc2)n1 [Example E62, (5-Methyl-2-phenyl-2H-pyrazol-3-yl)[4-(2-nitrophenyl)piperazin-1-yl]methanone]
109 °C	600 nM	2.2 nM	Cc1cc(C)cc(N2CCN(C(=O)c3cc(C)nn3-c3ccccc3)CC2)c1 [Example E63, [4-(3,5-Dimethylphenyl)piperazin-1-yl](5-methyl-2-phenyl-2H-pyrazol-3-yl)methanone]
134 °C	1400 nM	10.4 nM	CC(=O)c1cccc(N2CCN(C(=O)c3cc(C)nn3-c3ccccc3)CC2)c1 [Example E107, 1-{3-[4-(5-Methyl-2-phenyl-2H-pyrazole-3-carbonyl)piperazin-1-yl]phenyl}ethanone]
	12000 nM	1170 nM	CNCCNC(=O)c1cccc(N2CCN(C(=O)c3cc(C)nn3-c3ccccc3)CC2)c1 [Example E110, N-(2-Methylaminoethyl)-3-[4-(5-methyl-2-phenyl-2H-pyrazole-3-carbonyl)piperazin-1-yl]benzamide]
	< 25000 nM	3240 nM	Cc1cc(C(=O)N2CCN(c3nccs3)CC2)n(-c2ccccc2)n1 [Example E115]
180 °C	2070 nM	11.3 nM	CNC(=O)c1cccc(N2CCN(C(=O)c3cc(C)nn3-c3ccccc3)CC2)c1 [Example E116, N-Methyl-3-[4-(5-methyl-2-phenyl-2H-pyrazole-3-carbonyl)piperazin-1-yl]-benzamide]
	3000 nM	120 nM	Cc1cc(C(=O)N2CCN(c3cccc(NC(=O)CCO)c3)CC2)n(-c2ccccc2)n1 [Example E128, 3-Hydroxy-N-{3-[4-(5-methyl-2-phenyl-2H-pyrazole-3-carbonyl)piperazin-1-yl]-phenyl}propionamide]

From patent publication US20050130989A1, “N-arylheteroaromatic products compositions containing them and use thereof” (Aventis Pharma S. A., priority 2003, published 2005)
